Assays:
Format in all cases: in vivo
[1] = system: Amblyomma americanum; test: Long lasting efficacy against A. americanum on dogs (Example 6, Table 52)
Method: (§1) Forty two beagles were allotted to seven groups of six dogs each. Groups 1 and 2 served as untreated controls. Groups 3, 4 and 5 were each treated on Day 0 with three different compositions of the invention described in Tables 30, 31 and 32, respectively, containing Compound A in an amount to deliver a dose of about 20 mg/kg of body weight. Similarly, on Day 0, Groups 6 and 7 were each treated with the compositions described in Tables 30 and 32, respectively, containing Compound A to deliver a dose of about 20 mg/kg of body weight.
(§2) Dogs in Groups 1, 3, 4 and 5 were infested with approximately 50 A. americanum and dogs in Groups 2, 6 and 7 were infested with approximately 50 D. variabilis on Days −1, 42, 56, 70, 77, 84, 91 and 98. Dogs in Groups 1, 2, 3, 6 and 7 were also infested on Day 105. Ticks were counted upon removal at approximately 48 hours post treatment on Day 2 and 48 hours post infestation on Days 44, 58, 72, 79, 86, 93, 100 and 107. Tables 52 and 53 below show the exceptional long-lasting efficacy of the inventive compositions against A. americanum and D. variabilis.

[2] = system: ticks (Dermacentor variabilis); test: Efficacy of soft chews against induced tick infestations on dogs (Example 2); conditions: for % Reduction Ticks: soft chew of Table 6, once on Day 0, dogs; for Percent reduction against ticks: Table 6 soft chew, treated once on Day 0, dogs
Method: Sixteen beagles were studied to determine the effectiveness of a soft chewable veterinary composition comprising Compound A against induced infestations of Dermacentor variabilis and Ctenocephalides felis.
Four Treatment Groups containing four dogs each were formed. Dogs in Group 1 were untreated. […] All dogs were treated once on Day 0.
All dogs were infested with approximately 100 C. felis on Days −1, 8, 15, 22, 29, 35, 43, 57 and 71. All dogs were also infested with approximately 50 D. variabilis on Days −1, 7, 14, 21, 28, 34 and 42. Both ticks and fleas were counted upon removal on Days 2, 9, 16, 23, 30, 36 and 44. Fleas were counted upon removal for all Treatment Groups on Days 58 and 72.

[3] = system: Dermacentor variabilis; test: Long lasting efficacy against D. variabilis on dogs (Example 6, Table 53)
Method: as §1, §2

In the case of `O=C(CNC(=O)c1ccc(C2=NOC(c3cc(Cl)cc(C(F)(F)F)c3)(C(F)(F)F)C2)c2ccccc12)NCC(F)(F)F` (stereo not drawn) [Compound A, 4-[5-[3-chloro-5-(trifluoromethyl)phenyl]-4,5-dihydro-5-(trifluoromethyl)-3-isoxazolyl]-N-[2-oxo-2-[(2,2,2-trifluoroethyl)amino]ethyl]-1-naphthalenecarboxamide], the “% Reduction Ticks” value ([1]; Group 3, composition of Table 30, about 20 mg/kg once on Day 0, dogs, Day 2) is reported as 100.0%, the “% Reduction Ticks” value ([1]; Group 3, composition of Table 30, about 20 mg/kg once on Day 0, dogs, Day 44) is reported as 98.4% and the “% Reduction Ticks” value ([1]; Group 3, composition of Table 30, about 20 mg/kg once on Day 0, dogs, Day 58) is reported as 98.8%. The “% Reduction Ticks” value ([1]; Group 3, composition of Table 30, about 20 mg/kg once on Day 0, dogs, Day 72) was 99.5%, the “% Reduction Ticks” value ([1]; Group 3, composition of Table 30, about 20 mg/kg once on Day 0, dogs, Day 79) was 94.4% and the “% Reduction Ticks” value ([1]; Group 3, composition of Table 30, about 20 mg/kg once on Day 0, dogs, Day 86) was 98.9%. The “% Reduction Ticks” value ([1]; Group 3, composition of Table 30, about 20 mg/kg once on Day 0, dogs, Day 93) was 99.5%, the “% Reduction Ticks” value ([1]; Group 3, composition of Table 30, about 20 mg/kg once on Day 0, dogs, Day 100) was 95.6% and the “% Reduction Ticks” value ([1]; Group 3, composition of Table 30, about 20 mg/kg once on Day 0, dogs, Day 107) was 93.4%. The “% Reduction Ticks” value ([1]; Group 4, composition of Table 31, about 20 mg/kg once on Day 0, dogs, Day 2) was 100.0%, the “% Reduction Ticks” value ([1]; Group 4, composition of Table 31, about 20 mg/kg once on Day 0, dogs, Day 44) was 99.4% and the “% Reduction Ticks” value ([1]; Group 4, composition of Table 31, about 20 mg/kg once on Day 0, dogs, Day 58) was 99.4%. The “% Reduction Ticks” value ([1]; Group 4, composition of Table 31, about 20 mg/kg once on Day 0, dogs, Day 72) was 97.7%, the “% Reduction Ticks” value ([1]; Group 4, composition of Table 31, about 20 mg/kg once on Day 0, dogs, Day 79) was 88.6% and the “% Reduction Ticks” value ([1]; Group 4, composition of Table 31, about 20 mg/kg once on Day 0, dogs, Day 86) was 97.5%. The “% Reduction Ticks” value ([1]; Group 4, composition of Table 31, about 20 mg/kg once on Day 0, dogs, Day 93) was 97.7%, the “% Reduction Ticks” value ([1]; Group 4, composition of Table 31, about 20 mg/kg once on Day 0, dogs, Day 100) was 90.9% and the “% Reduction Ticks” value ([1]; Group 5, composition of Table 32, about 20 mg/kg once on Day 0, dogs, Day 2) was 100.0%. The “% Reduction Ticks” value ([1]; Group 5, composition of Table 32, about 20 mg/kg once on Day 0, dogs, Day 44) was 100.0%, the “% Reduction Ticks” value ([1]; Group 5, composition of Table 32, about 20 mg/kg once on Day 0, dogs, Day 58) was 99.5% and the “% Reduction Ticks” value ([1]; Group 5, composition of Table 32, about 20 mg/kg once on Day 0, dogs, Day 72) was 100.0%. The “% Reduction Ticks” value ([1]; Group 5, composition of Table 32, about 20 mg/kg once on Day 0, dogs, Day 79) was 98.8%, the “% Reduction Ticks” value ([1]; Group 5, composition of Table 32, about 20 mg/kg once on Day 0, dogs, Day 86) was 97.8% and the “% Reduction Ticks” value ([1]; Group 5, composition of Table 32, about 20 mg/kg once on Day 0, dogs, Day 93) was 98.2%. The “% Reduction Ticks” value ([1]; Group 5, composition of Table 32, about 20 mg/kg once on Day 0, dogs, Day 100) was 87.8%, the “% Reduction Ticks” value ([2]; Group 2, approximately 1.5 mg/kg, Day 2) was 100.0% and the “% Reduction Ticks” value ([2]; Group 2, approximately 1.5 mg/kg, Day 9) was 99.2%. The “% Reduction Ticks” value ([2]; Group 2, approximately 1.5 mg/kg, Day 16) was 100.0%, the “% Reduction Ticks” value ([2]; Group 2, approximately 1.5 mg/kg, Day 23) was 92.1% and the “% Reduction Ticks” value ([2]; Group 2, approximately 1.5 mg/kg, Day 30) was 99.5%. For the same compound, the “% Reduction Ticks” value ([2]; Group 2, approximately 1.5 mg/kg, Day 36) was 82.4%, the “% Reduction Ticks” value ([2]; Group 2, approximately 1.5 mg/kg, Day 44) was 68.3% and the “% Reduction Ticks” value ([2]; Group 3, approximately 2.5 mg/kg, Day 2) was 100.0%. The “% Reduction Ticks” value ([2]; Group 3, approximately 2.5 mg/kg, Day 9) was 100.0%, the “% Reduction Ticks” value ([2]; Group 3, approximately 2.5 mg/kg, Day 16) was 99.1% and the “% Reduction Ticks” value ([2]; Group 3, approximately 2.5 mg/kg, Day 23) was 97.2%. For the same compound, the “% Reduction Ticks” value ([2]; Group 3, approximately 2.5 mg/kg, Day 30) was 94.3%, the “% Reduction Ticks” value ([2]; Group 3, approximately 2.5 mg/kg, Day 36) was 96.9% and the “% Reduction Ticks” value ([2]; Group 3, approximately 2.5 mg/kg, Day 44) was 88.1%. For the same compound, the “% Reduction Ticks” value ([2]; Group 4, approximately 3.5 mg/kg, Day 2) was 100.0%, the “% Reduction Ticks” value ([2]; Group 4, approximately 3.5 mg/kg, Day 9) was 100.0% and the “% Reduction Ticks” value ([2]; Group 4, approximately 3.5 mg/kg, Day 16) was 99.5%. The “% Reduction Ticks” value ([2]; Group 4, approximately 3.5 mg/kg, Day 23) was 100.0%, the “% Reduction Ticks” value ([2]; Group 4, approximately 3.5 mg/kg, Day 30) was 98.1% and the “% Reduction Ticks” value ([2]; Group 4, approximately 3.5 mg/kg, Day 36) was 91.9%. For the same compound, the “% Reduction Ticks” value ([2]; Group 4, approximately 3.5 mg/kg, Day 44) was 84.7%, the “Percent reduction against ticks” value ([2]; through Day 36, Groups 3 and 4) was greater than 90% and the “Percent reduction against ticks” value ([2]; through and including Day 30, all treatment groups (approx. 1.5, 2.5 or 3.5 mg/kg)) was greater than 90%. The “% Reduction Ticks” value ([3]; Group 6, composition of Table 30, about 20 mg/kg once on Day 0, dogs, Day 2) was 100.0%, the “% Reduction Ticks” value ([3]; Group 6, composition of Table 30, about 20 mg/kg once on Day 0, dogs, Day 44) was 100.0% and the “% Reduction Ticks” value ([3]; Group 6, composition of Table 30, about 20 mg/kg once on Day 0, dogs, Day 58) was 99.5%. The “% Reduction Ticks” value ([3]; Group 6, composition of Table 30, about 20 mg/kg once on Day 0, dogs, Day 72) was 100.0%, the “% Reduction Ticks” value ([3]; Group 6, composition of Table 30, about 20 mg/kg once on Day 0, dogs, Day 79) was 98.8% and the “% Reduction Ticks” value ([3]; Group 6, composition of Table 30, about 20 mg/kg once on Day 0, dogs, Day 86) was 100.0%. For the same compound, the “% Reduction Ticks” value ([3]; Group 6, composition of Table 30, about 20 mg/kg once on Day 0, dogs, Day 93) was 98.9%, the “% Reduction Ticks” value ([3]; Group 6, composition of Table 30, about 20 mg/kg once on Day 0, dogs, Day 100) was 99.4% and the “% Reduction Ticks” value ([3]; Group 6, composition of Table 30, about 20 mg/kg once on Day 0, dogs, Day 107) was 99.4%. The “% Reduction Ticks” value ([3]; Group 7, composition of Table 32, about 20 mg/kg once on Day 0, dogs, Day 2) was 100.0%, the “% Reduction Ticks” value ([3]; Group 7, composition of Table 32, about 20 mg/kg once on Day 0, dogs, Day 44) was 100.0% and the “% Reduction Ticks” value ([3]; Group 7, composition of Table 32, about 20 mg/kg once on Day 0, dogs, Day 58) was 100.0%. The “% Reduction Ticks” value ([3]; Group 7, composition of Table 32, about 20 mg/kg once on Day 0, dogs, Day 72) was 100.0%, the “% Reduction Ticks” value ([3]; Group 7, composition of Table 32, about 20 mg/kg once on Day 0, dogs, Day 79) was 100.0% and the “% Reduction Ticks” value ([3]; Group 7, composition of Table 32, about 20 mg/kg once on Day 0, dogs, Day 86) was 100.0%. For the same compound, the “% Reduction Ticks” value ([3]; Group 7, composition of Table 32, about 20 mg/kg once on Day 0, dogs, Day 93) was 97.9%, the “% Reduction Ticks” value ([3]; Group 7, composition of Table 32, about 20 mg/kg once on Day 0, dogs, Day 100) was 100.0% and the “% Reduction Ticks” value ([3]; Group 7, composition of Table 32, about 20 mg/kg once on Day 0, dogs, Day 107) was 100.0%.

Reference: US9931320B2, “Parasiticidal oral veterinary compositions comprising systemically-acting active agents, methods and uses thereof” (MERIAL INC., priority 2012, dated 2018)
